Measurements from patent US20260206761A1, “HETEROARYL-TRIAZOLE COMPOUNDS AS PESTICIDES” (Bayer Aktiengesellschaft, priority 2019, published 2026).

Tests used:
Type in all cases: in vivo
[1] = tested on: adult engorged female ticks (Rhipicephalus microplus); assay: Rhipicephalus (Boophilus) microplus injection test; settings: 168 h, egg deposition after 7 days, read-out: activity (efficacy: infertile eggs); for pest or weed control at 0.02 mg: application rate 20 μg/animal; for pest or weed control at 4 pg: application rate 4 pg/animal
Experimental: Rhipicephalus (Boophilus) microplus—Injection Test
Solvent: dimethyl sulfoxide
To produce a suitable preparation of active compound, 10 mg of active compound are dissolved in 0.5 mL solvent, and the concentrate is diluted with solvent to the desired concentration.
Five adult engorged female ticks (Rhipicephalus microplus) are injected with 1 μL compound solution into the abdomen. The ticks are transferred into replica plates and incubated in a climate chamber.
After 7 days egg deposition of fertile eggs is monitored. Eggs where fertility is not visible are stored in a climate chamber till hatching after about 42 days. An efficacy of 100% means all eggs are infertile; 0% means all eggs are fertile.

[2] = tested on: larvae of the banded cucumber beetle (Diabrotica balteata); assay: Diabrotica balteata spray test; settings: 168 h, after 7 days, read-out: activity (efficacy: seedlings grown); for pest or weed control at 500 g/ha: application rate 500 g/ha (=160 pg/well); for pest or weed control at 100 g/ha: application rate 100 g/ha (=32 pg/well)
Experimental: Diabrotica balteata—spray test
(§1) Solvent: 78.0 parts by weight of acetone • • 1.5 parts by weight of dimethylformamide
(§2) Emulsifier: alkylarylpolyglycol ether
(§3) To produce a suitable preparation of active compound, 1 part by weight of active compound is mixed with the stated amount of solvent, and the concentrate is diluted with water, containing an emulsifier concentration of 1000 ppm, to the desired concentration. Further test concentrations are prepared by dilution with emulsifier containing water.
Soaked wheat seeds (Triticum aestivum) are placed in a multiple well plate filled with agar and some water and are incubated for 1 day to germinate (5 seeds per well). The germinated wheat seeds are sprayed with a test solution containing the desired concentration of the active ingredient. Afterwards each unit is infected with 10-20 larvae of the banded cucumber beetle (Diabrotica balteata).
After 7 days efficacy in % is determined. 100% means all the seedlings have grown up like in the untreated, uninfected control; 0% means none of the seedlings have grown.

[3] = tested on: Rhipicephalus microplus larvae (strain Parkhurst, resistant against synthetic pyrethroids); assay: Rhipicephalus (Boophilus) microplus in-vitro contact test, larval cattle tick; settings: after 48 hours, read-out: activity (efficacy: larvae dead or moribund); for pest or weed control at 100 g/ha: application rate 1 pg/cm^2 (=100 g/ha); for pest or weed control at 500 g/ha: application rate 5 pg/cm^2 (=500 g/ha)
Experimental: Rhipicephalus (Boophilus) microplus—In-Vitro Contact Tests Larval Cattle Tick (Strain Parkhurst. Resistant Against Synthetic Pyrethroids)
(§4) 9 mg compound is solved in 1 mL acetone and diluted with acetone to the desired concentration. 250 μL of the test solution is filled in 25 mL glass test tubes and homogeneously distributed on the inner walls by rotation and tilting on a shaking device (2 h at 30 rpm). With a compound concentration of 900 ppm, an inner surface of 44.7 cm^2 and a homogeneous distribution, a dose of 5 μg/cm^2 is achieved.
After the solvent has evaporated, each test tube is filled with 20-50 cattle tick larvae (Rhipicephalus microplus), closed with a perforated lid and incubated in a horizontal position at 85% relative humidity and 27° C. in an incubator. After 48 hours efficacy is determined. The larvae are patted on the ground of the tubes and negative geotactic behaviour is recorded.
An efficacy of 100% means all larvae are dead or moribund; 0% means no larvae are dead or moribund.

[4] = tested on: fall armyworm larvae (Spodoptera frugiperda); assay: Spodoptera frugiperda spray test; settings: 168 h, read-out: activity (mortality)
Experimental: Spodoptera frugiperda—Spray Test
Solvent: 78.0 parts by weight acetone • 1.5 parts by weight dimethylformamide
as §2
To produce a suitable preparation of active compound, 1 part by weight of active compound is mixed with the stated amount of solvents and is diluted with water, containing an emulsifier concentration of 1000 ppm, to the desired concentration. Further test concentrations are prepared by dilution with emulsifier containing water.
Maize (Zea mays) leaf sections are sprayed with a preparation of the active ingredient of the desired concentration. Once dry, the leaf sections are infested with fall armyworm larvae (Spodoptera frugiperda).
After 7 days mortality in % is determined. 100% means all caterpillars have been killed and 0% means none of the caterpillars have been killed.

[5] = tested on: adult brown dog ticks (Rhipicephalus sanguineus); assay: Rhipicephalus sanguineus in-vitro contact test, adult brown dog ticks; settings: after 48 hours, read-out: activity (efficacy: ticks dead or moribund); for pest or weed control at 100 g/ha: application rate 1 pg/cm^2 (=100 g/ha); for pest or weed control at 5 µg/cm2, 500 g/ha: application rate 5 μg/cm^2 (=500 g/ha)
Experimental: Rhipicephalus sanguineus—In-Vitro Contact Tests with Adult Brown Dog Ticks
as §4
After the solvent has evaporated, each test tube is filled with 5-10 adult brown dog ticks (Rhipicephalus sanguineus), closed with a perforated lid and incubated in a lying position at room temperature and relative humidity. After 48 hours efficacy is determined. The ticks are patted on the ground of the tubes and are incubated on a heating plate at 45-50° C. for at most 5 minutes. Immotile or uncoordinated moving ticks, which are not able to escape the heat by climbing upwards, are marked as dead or moribund.
An efficacy of 100% means all ticks are dead or moribund; 0% means no ticks are dead or moribund.

[6] = tested on: green peach aphid (Myzus persicae); assay: Myzus persicae oral test; settings: 120 h, application rate 4 ppm, after 5 days
Experimental: Solvent: 100 parts by weight acetone
To produce a suitable preparation of active compound, 1 part by weight of active compound is mixed with the stated amount of solvent, and the concentrate is diluted with water to the desired concentration.
50 μL compound solution is filled in microtiter plates and 150 μL IPL41 insect medium (33%+15% sugar) is added to obtain a total volume of 200 μL per well. Afterwards the plates are sealed with parafilm through which a mixed population of the green peach aphid (Myzus persicae) can suck on the compound preparation.
After 5 days mortality in % is determined. 100% means all aphids have been killed and 0% means none of the aphids have been killed.

[7] = tested on: larvae of the southern green stink bug (Nezara viridula); assay: Nezara viridula spray test; settings: 96 h, after 4 days; for mortality at 500 g/ha: application rate 500 g/ha
Experimental: Nezara viridula—Spray Test
as §1, §2, §3
Barley plants (Hordeum vulgare) infested with larvae of the southern green stink bug (Nezara viridula) are sprayed with a test solution containing the desired concentration of the active ingredient.
After 4 days mortality in % is determined. 100% means all the stink bugs have been killed; 0% means none of the stink bugs have been killed.

Row | Structure (SMILES) | pest or weed control at 100 g/ha [3] | pest or weed control at 500 g/ha [3] | mortality at 100 g/ha [4] | pest or weed control at 100 g/ha [2] | mortality at 500 g/ha [7] | other results
1 | CCOc1nc([C@H](C)NC(=O)c2csc(Cl)c2)n(-c2ccc(C#N)cn2)n1 [I-10] | – | – | – | – | – | pest or weed control at 0.02 mg [1]: 80%; pest or weed control at 500 g/ha [2]: 100%
2 | CC(C)Oc1nc([C@H](C)NC(=O)c2cc(Cl)cc(S(C)(=O)=O)c2)n(-c2ccc(C#N)cn2)n1 [I-11] | 90% | 80% | 100% | – | – | pest or weed control at 4 pg [1]: 100%; pest or weed control at 0.02 mg [1]: 100%; pest or weed control at 500 g/ha [2]: 80%; mortality at 500 g/ha [4]: 83%
3 | CC(C)Oc1nc([C@H](C)NC(=O)c2csc(Cl)c2)n(-c2ccc(C#N)cn2)n1 [I-12] | – | – | – | – | – | pest or weed control at 0.02 mg [1]: 80%
4 | CC(C)S(=O)(=O)c1cc(Cl)cc(C(=O)N[C@@H](C)c2nc(C3CC3)nn2-c2ccc(C#N)cn2)c1 [I-14] | 100% | 100% | – | – | – | pest or weed control at 4 pg [1]: 100%; pest or weed control at 0.02 mg [1]: 100%; pest or weed control at 100 g/ha [5]: 80%; pest or weed control at 5 µg/cm2, 500 g/ha [5]: 80%
5 | C[C@H](NC(=O)c1cc(OC(F)(F)F)cc(C2CC2)c1)c1nc(C2CC2)nn1-c1ccc(C#N)cn1 [I-37] | 100% | 100% | – | 100% | – | pest or weed control at 4 pg [1]: 100%
6 | C[C@H](NC(=O)c1cc(Cl)cc(S(=O)(=O)C(F)(F)F)c1)c1nc(C2CC2)nn1-c1ccc(C#N)cn1 [I-40] | 100% | 100% | 100% | 100% | – | pest or weed control at 4 pg [1]: 100%
7 | CC(NC(=O)c1cc(C(F)(F)F)n(C)n1)c1nc(I)nn1-c1ncccn1 (centres unmarked) [I-42] | 100% | 100% | – | 100% | – | –
8 | COc1nc([C@H](C)NC(=O)c2cc(OC(F)(F)F)cc(C3CC3)c2)n(-c2ccc(Cl)cn2)n1 [I-46] | – | – | – | 100% | – | –
9 | C[C@H](NC(=O)c1cc(C2CC2)cc(S(C)(=O)=O)c1)c1nc(C2CC2)nn1-c1ccc(C#N)cn1 [I-49] | 100% | 100% | 100% | – | – | mortality at 4 ppm [6]: 100%
10 | CC(NC(=O)c1cc(Br)cc(C2(C(F)(F)F)CC2)c1)c1nc(Cl)nn1-c1ccc(C#N)cn1 (centres unmarked) [I-50] | 80% | 90% | – | – | – | –
11 | C[C@H](NC(=O)c1cc(C(F)F)cc(S(C)(=O)=O)c1)c1nc(C2CC2)nn1-c1ccc(Cl)cn1 [I-57] | 100% | 100% | 100% | 100% | 90% | pest or weed control at 100 g/ha [5]: 100%; pest or weed control at 5 µg/cm2, 500 g/ha [5]: 80%; mortality at 100 g/ha ([7]; application rate 100 g/ha): 100%
12 | COc1nc([C@H](C)NC(=O)c2cc(Br)cc(C3CC3(F)F)c2)n(-c2ccc(C#N)cn2)n1 (some centres unmarked) [I-72] | 100% | 90% | 100% | – | 90% | –
13 | COc1nc([C@H](C)NC(=O)c2cc(F)cc(S(C)(=O)=O)c2)n(-c2ccc(C#N)cn2)n1 [I-73] | – | – | 100% | 100% | – | –
14 | COc1nc([C@H](C)NC(=O)c2cc(Cl)cc(S(C)(=O)=O)c2)n(-c2ncc(Cl)cn2)n1 [I-78] | – | – | 100% | 100% | – | –
15 | CC(NC(=O)c1cc(OC(F)(F)F)cc(C2CC2)c1)c1nc(Cl)nn1-c1ccc(C#N)cn1 (centres unmarked) [I-85] | 90% | 90% | – | 100% | – | –
16 | C[C@H](NC(=O)c1cc(OC(F)F)cc(S(=O)(=O)C2CC2)c1)c1nc(C2CC2)nn1-c1ccc(C#N)cn1 [I-86] | – | – | 100% | 100% | 100% | –
17 | COc1nc([C@H](C)NC(=O)c2cc(Cl)cc(S(=O)(=O)C3CC3)c2)n(-c2ccc(C#N)cn2)n1 [I-87] | – | – | 100% | – | 100% | –
18 | COc1nc([C@H](C)NC(=O)c2cc(C(F)F)cc(S(C)(=O)=O)c2)n(-c2ccc(C#N)cn2)n1 [I-89] | – | – | 100% | – | 100% | –
19 | C[C@H](NC(=O)c1cc(OC(F)(F)F)cc(S(=O)(=O)C2CC2)c1)c1nc(C2CC2)nn1-c1ccc(C#N)cn1 [I-90] | – | – | 100% | 100% | 100% | –
20 | COc1nc([C@H](C)NC(=O)c2cc(OC(F)(F)F)cc(S(=O)(=O)C3CC3)c2)n(-c2ccc(C#N)cn2)n1 [I-92] | – | – | 100% | – | 90% | –
21 | C[C@H](NC(=O)c1cc(Br)cc(C(C)(C)C)c1)c1nncn1-c1ccc(C#N)cn1 [II-2] | – | – | – | – | – | pest or weed control at 4 pg [1]: 100%; pest or weed control at 0.02 mg [1]: 100%; pest or weed control at 500 g/ha [2]: 100%; mortality at 500 g/ha [4]: 100%
22 | Cc1nc([C@H](C)NC(=O)c2sccc2C(F)(F)F)n(-c2ccc(C#N)cn2)n1 [II-10] | – | 90% | – | – | – | –
